Data reported in ChEMBL document CHEMBL1127250, “3,4-Di-o-()-camphanoyl-(+)-ciskhellactone and related compounds: A. new class of potent anti-HIV agents” (Bioorg Med Chem Lett, 1994).

Assays:
[1] = test system: H9; test: Compound was tested for inhibitory activity against HIV-1 replication in H9 lymphocyte cells; Activity range >32 but <160; format: functional, cell-based; details: Homo sapiens
[2] = Therapeutic index was determined; Value is >78049 but < 390244; details: read-out: TI
[3] = test system: U-937; test: Effective concentration against HIV-1 infection in U-937 cell line was determined; format: functional, cell-based; details: Homo sapiens
[4] = Therapeutic index was determined; Value is >222 but < 1,111; details: read-out: TI
[5] = Therapeutic index was determined; Value is >3,125 but < 15,625; details: read-out: TI
[6] = test system: H9; test: Effective concentration against HIV-1 replication in H9 lymphocyte cells was determined; format: functional, cell-based; details: Homo sapiens
[7] = Effective concentration against HIV-1 infection in peripheral blood mononuclear cells was determined; format: functional; details: Homo sapiens
[8] = Therapeutic index was determined; details: read-out: TI
[9] = test system: H9; test: Compound was tested for inhibitory activity against HIV-1 replication in H9 lymphocyte cells; Activity >6.4 but < 32; format: functional, cell-based; details: Homo sapiens
[10] = test system: H9; test: Effective concentration against HIV-1 replication in H9 lymphocyte cells was determined; Activity >6.4 but < 32; format: functional, cell-based; details: Homo sapiens
[11] = test system: H9; test: Compound was tested for inhibitory activity against HIV-1 replication in H9 lymphocyte cells; format: functional, cell-based; details: Homo sapiens

| SMILES | EC50 [6] [nM] | IC50 [11] [µM] | selectivity ratio [8] | other results |
| --- | --- | --- | --- | --- |
| CC1(C)Oc2ccc3ccc(=O)oc3c2[C@H](OC(=O)C23CCC(C)(C(=O)O2)C3(C)C)[C@H]1OC(=O)C12CCC(C)(C(=O)O1)C2(C)C (stereo not given in full) | – | – | > 1 | IC50 [9]: < 32 µM; EC50 [10]: < 32 µM |
| CC1(C)Oc2ccc3ccc(=O)oc3c2[C@H](OC(=O)C23CCC(C)(C(=O)O2)C3(C)C)[C@@H]1OC(=O)C12CCC(C)(C(=O)O1)C2(C)C (stereo not given in full) | 51000 | 1700 | > 33.3 | – |
| CC1(C)Oc2ccc3ccc(=O)oc3c2[C@@H](OC(=O)C23CCC(C)(C(=O)O2)C3(C)C)[C@@H]1OC(=O)C12CCC(C)(C(=O)O1)C2(C)C (stereo not given in full) | 32000 | > 32 | > 1 | – |

The next lines start with results.

| EC50 [6] [nM] | IC50 [11] [µM] | SMILES | selectivity ratio [8] | other results |
| --- | --- | --- | --- | --- |
| 0.41 | – | CC1(C)Oc2ccc3ccc(=O)oc3c2[C@@H](OC(=O)C23CCC(C)(C(=O)O2)C3(C)C)[C@H]1OC(=O)C12CCC(C)(C(=O)O1)C2(C)C (stereo not given in full) | – | IC50 [1]: < 160 µM; selectivity ratio [2]: < 390000; EC50 [3]: 2.1 nM; selectivity ratio [4]: > 222; selectivity ratio [5]: > 3120; EC50 [7]: 29 nM |
| 1300 | > 52 | CC(=O)O[C@@H]1[C@H](OC(=O)CC(C)C)c2c(ccc3ccc(=O)oc23)OC1(C)C [SUKSDORFIN] | > 40 | – |
| 150 | – | Cc1cn([C@H]2C[C@H](N=[N+]=[N-])[C@@H](CO)O2)c(=O)[nH]c1=O [ZIDOVUDINE] | – | – |
